Measured values reported in US20220296572A1, “IMMUNOSUPPRESSIVE THERAPIES FOR USE WITH CARDIOMYOCYTE CELL THERAPIES, AND ASSOCIATED METHODS AND COMPOSITIONS” (Sana Biotechnology, Inc., priority 2021, published 2022).

Tests used:
[1] = transplant recipients; cited from earlier work
[2] = Tacrolimus blood trough level in the rhesus recipient; assay type: in vivo, rhesus macaque (Macaca mulatta); conditions: subcutaneously twice per day
Procedure: Beginning five days prior to delivery of the cell therapy composition and continuing for 16 weeks after delivery, the rhesus recipient was treated daily with tacrolimus and MMF. Tacrolimus was provided subcutaneously twice per day at a dose yielding a blood trough level of approximately 5-10 ng/mL. MMF was provided orally twice per day, for a total dose of 250 mg MMF per day. If a subject cannot tolerate oral dosing of MMF, MMF can be alternatively provided by intravenous administration. In some cases, if a subject cannot tolerate oral MMF, the subject is administered intravenous MMF until the subject can tolerate oral MMF, at which point the subject is switched from intravenous to oral MMF Immune rejection of the riPSC-CMs 16 weeks after delivery was determined by histopathological analysis.

T cells = conditions: relative to CsA; cited from earlier work

Row | SMILES | Safety profile relative to MMF [1] | Therapeutic equivalence to MMF [1] | Blood trough level [2] [ng/mL] | Concentrations giving similar effects to CsA, times lower (T cells) [times]
1 | COc1c(C)c2c(c(O)c1C/C=C(\C)CCC(=O)[O-])C(=O)OC2.[Na+] [MS, mycophenolate sodium] | comparable safety profile | therapeutically equivalent to MMF |  | 
2 | C=CC[C@@H]1/C=C(\C)C[C@H](C)C[C@H](OC)[C@H]2O[C@@](O)(C(=O)C(=O)N3CCCC[C@H]3C(=O)O[C@H](/C(C)=C/[C@@H]3CC[C@@H](O)[C@H](OC)C3)[C@H](C)[C@@H](O)CC1=O)[C@H](C)C[C@@H]2OC [Tacrolimus, tacrolimus] |  |  | 5 to 10 | 100
